Reference: PubChem BioAssay (NCI)
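All cell lines were grown in 96-well plates and treated with compound for 48 hours. TGI: concentration producing complete growth inhibition.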

Legend:
Experiment in all cases: growth of human tumour cells (NCI), 48 h
NCI/ADR-RES ovarian = test system: NCI/ADR-RES ovarian
UO-31 renal = test system: UO-31 renal
RXF 393 renal = test system: RXF 393 renal
HOP-92 NSCLC = test system: HOP-92 NSCLC
SK-MEL-5 melanoma = test system: SK-MEL-5 melanoma
COLO 205 colon = test system: COLO 205 colon
NCI-H460 lung = test system: NCI-H460 lung
TK-10 renal = test system: TK-10 renal
SK-OV-3 ovarian = test system: SK-OV-3 ovarian
NCI-H23 lung = test system: NCI-H23 lung
CAKI-1 renal = test system: CAKI-1 renal
MCF7 breast = test system: MCF7 breast
EKVX NSCLC = test system: EKVX NSCLC
LOX IMVI melanoma = test system: LOX IMVI melanoma
IGROV1 ovarian = test system: IGROV1 ovarian
SNB-75 CNS = test system: SNB-75 CNS
SF-268 CNS = test system: SF-268 CNS
U251 CNS = test system: U251 CNS
OVCAR-4 ovarian = test system: OVCAR-4 ovarian
MDA-MB-435 = test system: MDA-MB-435
RPMI-8226 leukemia = test system: RPMI-8226 leukemia
SW-620 colon = test system: SW-620 colon
KM12 colon = test system: KM12 colon
NCI-H226 lung = test system: NCI-H226 lung
SK-MEL-2 melanoma = test system: SK-MEL-2 melanoma
HT29 colon = test system: HT29 colon
HCC-2998 colon = test system: HCC-2998 colon
A549 NSCLC = test system: A549 NSCLC
MOLT-4 leukemia = test system: MOLT-4 leukemia
OVCAR-8 ovarian = test system: OVCAR-8 ovarian
786-0 renal = test system: 786-0 renal
M14 melanoma = test system: M14 melanoma
K-562 leukemia = test system: K-562 leukemia
SF-295 CNS = test system: SF-295 CNS
OVCAR-3 ovarian = test system: OVCAR-3 ovarian
HL-60(TB) leukemia = test system: HL-60(TB) leukemia
MDA-N = test system: MDA-N
BT-549 breast = test system: BT-549 breast
UACC-62 melanoma = test system: UACC-62 melanoma
NCI-H522 lung = test system: NCI-H522 lung
PC-3 prostate = test system: PC-3 prostate
DU-145 prostate = test system: DU-145 prostate
T-47D breast = test system: T-47D breast
SN12C renal = test system: SN12C renal
CCRF-CEM leukemia = test system: CCRF-CEM leukemia
MDA-MB-231 breast = test system: MDA-MB-231 breast
SF-539 CNS = test system: SF-539 CNS
HCT-116 colon = test system: HCT-116 colon
UACC-257 melanoma = test system: UACC-257 melanoma
HCT-15 colon = test system: HCT-15 colon
SNB-19 CNS = test system: SNB-19 CNS
MALME-3M melanoma = test system: MALME-3M melanoma
HOP-62 NSCLC = test system: HOP-62 NSCLC
A498 renal = test system: A498 renal
HS 578T breast = test system: HS 578T breast
ACHN renal = test system: ACHN renal
OVCAR-5 ovarian = test system: OVCAR-5 ovarian
SK-MEL-28 melanoma = test system: SK-MEL-28 melanoma
SR leukemia = test system: SR leukemia

Cc1cccc2c(NCCCN(C)C)c3c([N+](=O)[O-])ccc(C)c3nc12
TGI (NCI/ADR-RES ovarian): 3.37 µM | TGI (UO-31 renal): 0.492 µM | TGI (RXF 393 renal): 0.19 µM | TGI (HOP-92 NSCLC): 0.416 µM | TGI (SK-MEL-5 melanoma): 0.251 µM | TGI (COLO 205 colon): 0.218 µM | TGI (NCI-H460 lung): 0.141 µM | TGI (TK-10 renal): 0.709 µM | TGI (SK-OV-3 ovarian): 0.982 µM | TGI (NCI-H23 lung): 0.16 µM | TGI (CAKI-1 renal): 2.61 µM | TGI (MCF7 breast): 0.173 µM | TGI (EKVX NSCLC): 0.36 µM | TGI (LOX IMVI melanoma): 0.607 µM | TGI (IGROV1 ovarian): 0.666 µM | TGI (SNB-75 CNS): 0.491 µM | TGI (SF-268 CNS): 1.48 µM | TGI (U251 CNS): 0.741 µM | TGI (OVCAR-4 ovarian): 0.554 µM | TGI (MDA-MB-435): 0.492 µM | TGI (RPMI-8226 leukemia): 3.17 µM | TGI (SW-620 colon): 6 µM | TGI (KM12 colon): 3.23 µM | TGI (NCI-H226 lung): 0.458 µM | TGI (SK-MEL-2 melanoma): 0.285 µM | TGI (HT29 colon): 1.39 µM | TGI (HCC-2998 colon): < 0.0454 µM | TGI (A549 NSCLC): 0.778 µM | TGI (MOLT-4 leukemia): 1.15 µM | TGI (OVCAR-8 ovarian): 1.58 µM | TGI (786-0 renal): 0.573 µM | TGI (M14 melanoma): 0.297 µM | TGI (K-562 leukemia): 3.94 µM | TGI (SF-295 CNS): 0.451 µM | TGI (OVCAR-3 ovarian): 0.357 µM | TGI (HL-60(TB) leukemia): 1.39 µM | TGI (MDA-N): 0.498 µM | TGI (BT-549 breast): 0.858 µM | TGI (UACC-62 melanoma): 0.284 µM | TGI (NCI-H522 lung): 0.12 µM | TGI (PC-3 prostate): 0.259 µM | TGI (DU-145 prostate): 0.651 µM | TGI (T-47D breast): 0.758 µM | TGI (SN12C renal): 0.948 µM | TGI (CCRF-CEM leukemia): > 100 µM | TGI (MDA-MB-231 breast): 0.601 µM | TGI (SF-539 CNS): 1.12 µM | TGI (HCT-116 colon): 0.821 µM | TGI (UACC-257 melanoma): 0.4 µM | TGI (HCT-15 colon): 0.592 µM | TGI (SNB-19 CNS): 2.02 µM | TGI (MALME-3M melanoma): 0.375 µM | TGI (HOP-62 NSCLC): 0.265 µM | TGI (A498 renal): 0.0269 µM | TGI (HS 578T breast): 2.96 µM | TGI (ACHN renal): 0.332 µM | TGI (OVCAR-5 ovarian): 0.744 µM | TGI (SK-MEL-28 melanoma): 5.87 µM

c1ccc2c(c1)Oc1cccc3cccc-2c13
TGI (NCI/ADR-RES ovarian): > 100 µM | TGI (UO-31 renal): > 100 µM | TGI (RXF 393 renal): > 100 µM | TGI (HOP-92 NSCLC): > 100 µM | TGI (SK-MEL-5 melanoma): > 100 µM | TGI (COLO 205 colon): > 100 µM | TGI (NCI-H460 lung): > 100 µM | TGI (TK-10 renal): > 100 µM | TGI (SK-OV-3 ovarian): > 100 µM | TGI (NCI-H23 lung): > 100 µM | TGI (CAKI-1 renal): > 100 µM | TGI (MCF7 breast): > 100 µM | TGI (EKVX NSCLC): > 100 µM | TGI (LOX IMVI melanoma): > 100 µM | TGI (IGROV1 ovarian): > 100 µM | TGI (SNB-75 CNS): > 100 µM | TGI (SF-268 CNS): > 100 µM | TGI (U251 CNS): > 100 µM | TGI (OVCAR-4 ovarian): > 100 µM | TGI (MDA-MB-435): > 100 µM | TGI (RPMI-8226 leukemia): > 100 µM | TGI (SW-620 colon): > 100 µM | TGI (KM12 colon): > 100 µM | TGI (NCI-H226 lung): > 100 µM | TGI (SK-MEL-2 melanoma): > 100 µM | TGI (HT29 colon): > 100 µM | TGI (HCC-2998 colon): > 100 µM | TGI (A549 NSCLC): > 100 µM | TGI (MOLT-4 leukemia): > 100 µM | TGI (OVCAR-8 ovarian): > 100 µM | TGI (786-0 renal): > 100 µM | TGI (M14 melanoma): > 100 µM | TGI (K-562 leukemia): > 100 µM | TGI (SF-295 CNS): > 100 µM | TGI (OVCAR-3 ovarian): > 100 µM | TGI (HL-60(TB) leukemia): > 100 µM | TGI (MDA-N): > 100 µM | TGI (BT-549 breast): > 100 µM | TGI (UACC-62 melanoma): > 100 µM | TGI (NCI-H522 lung): > 100 µM | TGI (PC-3 prostate): > 100 µM | TGI (DU-145 prostate): > 100 µM | TGI (T-47D breast): > 100 µM | TGI (SN12C renal): > 100 µM | TGI (CCRF-CEM leukemia): > 100 µM | TGI (MDA-MB-231 breast): > 100 µM | TGI (SF-539 CNS): > 100 µM | TGI (HCT-116 colon): > 100 µM | TGI (UACC-257 melanoma): > 100 µM | TGI (HCT-15 colon): > 100 µM | TGI (SNB-19 CNS): > 100 µM | TGI (MALME-3M melanoma): > 100 µM | TGI (HOP-62 NSCLC): > 100 µM | TGI (A498 renal): > 100 µM | TGI (HS 578T breast): > 100 µM | TGI (ACHN renal): > 100 µM | TGI (OVCAR-5 ovarian): > 100 µM | TGI (SK-MEL-28 melanoma): > 100 µM

CC1OC(O[C@H]2CC[C@]3(C)[C@H]4CC=C5[C@@H]6[C@@H](C)[C@H](C)CC[C@]6(C(=O)OC6OC(CO)C(O)C(O)C6O)CC[C@@]5(C(=O)O)[C@]4(C)CC[C@H]3C2(C)C)C(O)C(O)C1O (some centres not stated)
TGI (NCI/ADR-RES ovarian): > 100 µM | TGI (UO-31 renal): > 100 µM | TGI (RXF 393 renal): > 100 µM | TGI (HOP-92 NSCLC): > 100 µM | TGI (SK-MEL-5 melanoma): > 100 µM | TGI (COLO 205 colon): > 100 µM | TGI (NCI-H460 lung): > 100 µM | TGI (TK-10 renal): > 100 µM | TGI (SK-OV-3 ovarian): > 100 µM | TGI (NCI-H23 lung): > 100 µM | TGI (CAKI-1 renal): > 100 µM | TGI (MCF7 breast): > 100 µM | TGI (LOX IMVI melanoma): > 100 µM | TGI (SNB-75 CNS): > 100 µM | TGI (SF-268 CNS): > 100 µM | TGI (U251 CNS): > 100 µM | TGI (SR leukemia): > 100 µM | TGI (OVCAR-4 ovarian): > 100 µM | TGI (MDA-MB-435): > 100 µM | TGI (SW-620 colon): > 100 µM | TGI (KM12 colon): > 100 µM | TGI (SK-MEL-2 melanoma): > 100 µM | TGI (HCC-2998 colon): > 100 µM | TGI (MOLT-4 leukemia): > 100 µM | TGI (OVCAR-8 ovarian): > 100 µM | TGI (786-0 renal): > 100 µM | TGI (M14 melanoma): > 100 µM | TGI (K-562 leukemia): > 100 µM | TGI (SF-295 CNS): > 100 µM | TGI (OVCAR-3 ovarian): > 100 µM | TGI (HL-60(TB) leukemia): > 100 µM | TGI (MDA-N): > 100 µM | TGI (BT-549 breast): > 100 µM | TGI (UACC-62 melanoma): > 100 µM | TGI (NCI-H522 lung): > 100 µM | TGI (PC-3 prostate): > 100 µM | TGI (DU-145 prostate): > 100 µM | TGI (T-47D breast): > 100 µM | TGI (SN12C renal): > 100 µM | TGI (CCRF-CEM leukemia): > 100 µM | TGI (MDA-MB-231 breast): > 100 µM | TGI (SF-539 CNS): > 100 µM | TGI (HCT-116 colon): > 100 µM | TGI (UACC-257 melanoma): > 100 µM | TGI (HCT-15 colon): > 100 µM | TGI (SNB-19 CNS): > 100 µM | TGI (HOP-62 NSCLC): > 100 µM | TGI (A498 renal): > 100 µM | TGI (HS 578T breast): > 100 µM | TGI (ACHN renal): > 100 µM | TGI (OVCAR-5 ovarian): > 100 µM
